The values that follow come from patent publication US5385842A, “Anthraquinones as inhibitors of sulfide production from sulfate-reducing bacteria” (E. I. Du Pont de Nemours and Company, priority 1993, dated 1995).

The subject of test [1] is Desulfovibrio desulfuricans G100A. The test can be described thus: microbe, parasite or virus in culture. Type of test: cell-based. To be noted: for inhibition at 10 ppm / inhibition at 30 ppm: Desulfovibrio desulfuricans, G100A, read-out: % Inhib. (inhibition of sulfide production).
In test [2] the test system is B. aureus, B. subtilis, B. stearothermophilus and S. aureus. The following applies: background art; cited from earlier work.
The test system of test [3] is D. desulfuricans G100A. In words: Effect of dithionite-reduced anthraquinones on growth of D. desulfuricans G100A. It is filed as cell-based. On the procedure: Three anthraquinones, 1,8-dihydroxy-, 1-chloro-, and 3-chloro-2-carboxy- were prepared as 1 ml of 1000 ppm solutions in acetone for the first two compounds or water for the third. These solutions were then treated with 1 mg of the strong reducing agent, sodium dithionite. 50 ul of each solution (for a final culture concentration of 5 ppm) was used immediately to treat growing cultures of D. desulfuricans G100A in BTZ-3 medium as defined in Example 1. The compounds were added to the 10 ml cultures at 15 h of growth.

In test [4] the test system is D. desulfuricans #ATCC27774. In words: Respiration rate (hydrogen gas uptake) with sulfate as electron acceptor. The following applies: Desulfovibrio desulfuricans, ATCC27774, 4 h, pH 7, read-out: Gas Uptake (as percent of control).
A further test deals with Desulfovibrio gigas. The test can be described thus: Sulfide production by resting cells of D. gigas. Type of test: cell-based. The following applies: for activity at 0.1 ppm / activity at 0.5 ppm / activity at 2 ppm / activity at 5 ppm: Desulfovibrio, 3 hours at 31° C.; for inhibition of sulfide production (in words): resting cells. The protocol:
Experiments in this example were carried out using resting cells of Desulfovibrio gigas rather than growing cells as was the case for the autoanalyzer system employing the Desulfovibrio desulfuricans G100A strain. […] Thus the experiment examined a different organism, different test system, and a different physiological state for the phenomenon of anthraquinone inhibition of sulfide production by Desulfovibrio sp. Active compounds, as determined by the autoanalyzer, were evaluated in comparison with four additional compounds not evaluated in the autoanalyzer.
500 ml cultures of Desulfovibrio gigas were grown on standard BTZ-3 medium as previously described in Example 1 with 30 mM sodium lactate, 30 mM sodium sulfate and 30 mM sodium fumarate. The culture was harvested after 24 h of growth at 31° C. by centrifugation at 8000 rpm in a GSA Sorvall rotor for 20 minutes. The cell pellet was resuspended in 30 ml of incubation assay mixture of the following composition: 50 mM HEPES buffer pH 7 buffer, 2.5 mM sodium lactate, 2.5 mM sodium sulfate. This suspension was centrifuged again at 10,000 rpm in a Sorvall SS-34 rotor for 5 minutes. The resulting cell pellet was resuspended in 5 ml of incubation assay buffer. Cell densities were generally near 10e10 cells/mi.
The samples were assayed for production in the presence of anthraquinones. 200 ul of the cell suspension was added to 1.2 ml of incubation assay mixture in a 5 ml capacity test tube. The tube was gassed with hydrogen gas for 20 minutes then the anthraquinones were added as ethanolic solutions, the tubes were then gassed with hydrogen again for 5 minutes. The reaction mixtures were then incubated for 3 hours at 31° C. The reactions were stopped by the addition of 200 ul of 1N sodium hydroxide. After 20 minutes the alkaline mixtures were centrifuged in a table top microfuge for 4 minutes at 14,000 rpm to remove cells and cell debris. The supernatant was then assayed for sulfide using the ferric chloride-DPD reagent system as described by Siegel et al., Anal. Blochem., 11:126-132, 1965, herein incorporated by reference.

Test [5] concerns D. desulfuricans G100A. The test can be described thus: Growth of D. desulfuricans G100A after addition of inhibitor at 12 h. It is filed as cell-based. On the procedure: Four 10 ml culture tubes of BTZ-3 medium as defined in Example 1 supplemented with sodium lactate (40 mM) and sodium sulfate (30 mM) and 0.5 ml of reducing agent were inoculated with 100 ul of a fully grown suspension of D. desulfuricans G100A. The culture was allowed to grow and the optical density at 660 nm was monitored until the cells entered into exponential growth (approx. 12-15 h, O.D. 660=0.1-0.2). At this time 100 ul of a 300 ppm solution of 1,8 dihydroxyanthraquinone, 1-chloranthraquinone or 3-chloro-2-anthraquinone carboxylic acid, respectively, was added to one of the tubes. The ethanol:water (80:20) solvent (100 μl ) was added to the fourth tube to serve as an uninhibited control.
#3 ppm inhibitor added at 12 hours

Test [6] deals with sulfate-reducing bacteria. To be noted: background art; cited from earlier work.
The subject of another test is bacteria. The following applies: background art; cited from earlier work.
A further test concerns anaerobic bacteria. The following applies: background art; cited from earlier work.
Setting [7] is: 0 h, before addition of 5 ppm dithionite-reduced compound at 15 h, control 0.02.
[8] abbreviates: 2 h, before addition of 5 ppm dithionite-reduced compound at 15 h, control 0.02.
The mark [9] stands for this setting: 12 h, before addition of 5 ppm dithionite-reduced compound at 15 h, control 0.08.
[10] abbreviates: 15 h, time of addition of 5 ppm dithionite-reduced compound, control 0.18.
Setting [11] is: 17 h, 5 ppm dithionite-reduced compound added at 15 h, control 0.26.
Where [12] appears, read: 20 h, 5 ppm dithionite-reduced compound added at 15 h, control 0.37.
The mark [13] stands for this setting: 25 h, 5 ppm dithionite-reduced compound added at 15 h, control 0.50.
[14] abbreviates: 30 h, 5 ppm dithionite-reduced compound added at 15 h, control 0.98.
The mark [15] stands for this setting: 45 h, 5 ppm dithionite-reduced compound added at 15 h, control 1.50.
Setting [16] is: 0 h of growth, before addition of 3 ppm inhibitor at 12 h.
The mark [17] stands for this setting: 10 h of growth, before addition of 3 ppm inhibitor at 12 h.
[18] abbreviates: 12 h of growth, 3 ppm inhibitor added at 12 h.
[19] abbreviates: 14 h of growth, 3 ppm inhibitor added at 12 h.
Setting [20] is: 18 h of growth, 3 ppm inhibitor added at 12 h.
Setting [21] is: 20 h of growth, 3 ppm inhibitor added at 12 h.
Setting [22] is: 24 h of growth, 3 ppm inhibitor added at 12 h.
[23] abbreviates: 29 h of growth, 3 ppm inhibitor added at 12 h.
The mark [24] stands for this setting: 34 h of growth, 3 ppm inhibitor added at 12 h.
The mark [25] stands for this setting: 62 h of growth, 3 ppm inhibitor added at 12 h.
Where [26] appears, read: 92 h of growth, 3 ppm inhibitor added at 12 h.

Consider `O=C1c2ccccc2C(=O)c2c1ccc(O)c2O` [1,2-Dihydroxyanthraquinone], for which, in test [1], the inhibition at 10 ppm was 68.9%. For the same compound, in test [2], the “antibacterial activity (in words)” value was “either inactive against these strains or required concentrations in excess of 100 to 1000 ppm for inhibition”.
On to `Nc1ccc(O)c2c1C(=O)c1ccccc1C2=O` [1-Amino-4-hydroxyanthraquinone], for which, in test [1], the inhibition at 30 ppm was 54.3%. Besides, the “antibacterial activity (in words)” value in [2] was “either inactive against these strains or required concentrations in excess of 100 to 1000 ppm for inhibition”.
In the case of `O=C1c2ccccc2C(=O)c2c(Cl)cccc21` [1-Chloroanthraquinone], in test [1], the inhibition at 30 ppm was 20.8%. The “Optical Density @ 660 nm” value stood at 0.02 in the test on D. desulfuricans G100A [3] (setting [7]); 0.02 with D. desulfuricans G100A [3] (setting [8]); 0.08 with D. desulfuricans G100A [3] (setting [9]); 0.15 with D. desulfuricans G100A [3] (setting [10]); 0.20 in the test with D. desulfuricans G100A [3] (setting [11]); 0.21 in the test on D. desulfuricans G100A [3] (setting [12]). The “Optical Density @ 660 nm” value in the test on D. desulfuricans G100A [3] (setting [13]) came out at 0.22; in the test on D. desulfuricans G100A [3] (setting [14]) it was 0.22; in the test on D. desulfuricans G100A [3] (setting [15]), 0.24. The activity at 0.6 ppm in test [4] was determined as 74%. Also, in test [4], the activity at 1.5 ppm stood at 50%. In test [4], the activity at 3 ppm stood at 38%. Besides, in the test on Desulfovibrio gigas, the activity at 0.1 ppm amounted to 81%. Besides, in the test on Desulfovibrio gigas, the activity at 0.5 ppm amounted to 26%. Also, the activity at 2 ppm in the test with Desulfovibrio gigas turned out to be 1.6%. Further, the activity at 5 ppm in the test with Desulfovibrio gigas is 1.3%. In the test on Desulfovibrio gigas, the “inhibition of sulfide production (in words)” value (“inhibition … (in words)” for short) is “inhibitory properties”. In addition, the “optical density reading at 660 nm” value in the test on D. desulfuricans G100A [5] (setting [16]) is on record as “.01”; in the test with D. desulfuricans G100A [5] (setting [17]), “.11”; with D. desulfuricans G100A [5] (setting [18]) it was “.12”; in the test with D. desulfuricans G100A [5] (setting [19]) it was “.12”; in the test with D. desulfuricans G100A [5] (setting [20]), “.27”; with D. desulfuricans G100A [5] (setting [21]) it was “.32”. The “optical density reading at 660 nm” value was “.32” in the test on D. desulfuricans G100A [5] (setting [22]); “.30” with D. desulfuricans G100A [5] (setting [23]); “.32” in the test on D. desulfuricans G100A [5] (setting [24]); “.26” in the test with D. desulfuricans G100A [5] (setting [25]); “.23” with D. desulfuricans G100A [5] (setting [26]).
For the compound `N#Cc1cccc2c1C(=O)c1ccccc1C2=O` [1-cyanoanthraquinone, 1-Cyanoanthraquinone], in the test with Desulfovibrio gigas, the activity at 0.1 ppm came to 118%, the activity at 0.5 ppm stood at 20%, the activity at 2 ppm amounted to 6.7% and the activity at 5 ppm amounted to 6.8%. Moreover, in the test on Desulfovibrio gigas, the “inhibition … (in words)” value was “inhibitory effect”.
Take `O=C1c2ccccc2C(=O)c2c(F)cccc21` [1-fluoroanthraquinone, 1-Fluoroanthraquinone]: in the test with Desulfovibrio gigas, the activity at 0.1 ppm was 105%, the activity at 0.5 ppm was found to be 23%, the activity at 2 ppm was found to be 0.9% and the activity at 5 ppm amounted to 0.9%. In addition, in the test on Desulfovibrio gigas, the “inhibition … (in words)” value is on record as “inhibitory effect”.
Consider `N#CC(Br)(Br)C(N)=O` [2,2-Dibromo-3-nitrilopropionamide], for which, in test [6], the “effective / use concentration against sulfate-reducers” value is reported as 3-12 ppm.
As for `O=C(O)c1cc2c(cc1Cl)C(=O)c1ccccc1C2=O` [2-Chloroanthraquinone-3-carboxylic acid, 3-Chloro-9,10-dihydro-9,10-dioxo-2-anthracenecarboxylic acid], in [1], the inhibition at 10 ppm is 100%. Moreover, the “Optical Density @ 660 nm” value is reported as 0.02 with D. desulfuricans G100A [3] (setting [7]); 0.02 in the test on D. desulfuricans G100A [3] (setting [8]); 0.07 in the test with D. desulfuricans G100A [3] (setting [9]); 0.1 with D. desulfuricans G100A [3] (setting [10]); 0.15 in the test with D. desulfuricans G100A [3] (setting [11]); 0.17 in the test with D. desulfuricans G100A [3] (setting [12]). In addition, the “Optical Density @ 660 nm” value with D. desulfuricans G100A [3] (setting [13]) is on record as 0.17; in the test on D. desulfuricans G100A [3] (setting [14]) it was 0.16; with D. desulfuricans G100A [3] (setting [15]), 0.22. In addition, in [4], the activity at 0.6 ppm turned out to be 79%. The activity at 1.5 ppm in test [4] came to 55%. Further, the activity at 3 ppm in test [4] worked out at 41%. The “optical density reading at 660 nm” value in the test with D. desulfuricans G100A [5] (setting [16]) is given as “.01”; with D. desulfuricans G100A [5] (setting [17]), “.10”; with D. desulfuricans G100A [5] (setting [18]), “.16”; in the test with D. desulfuricans G100A [5] (setting [19]) it was “.21”; in the test on D. desulfuricans G100A [5] (setting [20]), “.36”; in the test with D. desulfuricans G100A [5] (setting [21]) it was “.38”. Also, the “optical density reading at 660 nm” value with D. desulfuricans G100A [5] (setting [22]) was “.36”; in the test on D. desulfuricans G100A [5] (setting [23]), “.37”; in the test with D. desulfuricans G100A [5] (setting [24]), “.37”; in the test on D. desulfuricans G100A [5] (setting [25]), “.34”; in the test with D. desulfuricans G100A [5] (setting [26]) it was “.25”.
In the case of `O=C1c2ccccc2C(=O)c2cc(Br)ccc21` [2-bromoanthraquinone, 2-Bromoanthraquinone], in the test on Desulfovibrio gigas, the activity at 0.1 ppm came to 99%, the activity at 0.5 ppm is 33%, the activity at 2 ppm stood at 0.6% and the activity at 5 ppm came to 0.6%. In the test on Desulfovibrio gigas, the “inhibition … (in words)” value was “inhibitory effect”.
With `O=C1c2ccccc2C(=O)c2cc(C(F)(F)F)ccc21` [2-trifluoromethylanthraquinone, 2-Trifluoromethylanthraquinone], in the test with Desulfovibrio gigas, the activity at 0.1 ppm is 99%, the activity at 0.5 ppm was found to be 17%, the activity at 2 ppm came to 1.7% and the activity at 5 ppm amounted to 1.5%. Further, the “inhibition … (in words)” value with Desulfovibrio gigas was “inhibitory effect”.
In the case of `[H]/N=C(\N/C(=N/[H])NCCCCCCNC(=N)NC(=N)Nc1ccc(Cl)cc1)Nc1ccc(Cl)cc1` [Chlorhexidine, reference compound], the “inhibition … (in words)” value in test [1] is reported as “inhibits sulfide production”. In [1] (Table III, Example 3), the “% inhibition of sulfide formation” value is 88.7%. Moreover, in test [6], the “effective / use concentration against sulfate-reducers” value was 1-10 ppm.
With `O=C(O)c1cc(O)c2c(c1)C(=O)c1cccc(O)c1C2=O` [Rhein, 9,10-Dihydro-4,5-dihydroxy-9,10-dioxo-2-anthracenecarboxylic acid], in [1], the inhibition at 30 ppm came out at 48.6%. In addition, the “antibacterial activity (in words)” value in the test on bacteria was “active component of leaf extracts of Cassia sp”.
In the case of `Cc1ncc([N+](=O)[O-])n1CCO` [metronidazole], the “effectiveness (in words)” value in the test on anaerobic bacteria is “generally effective against anaerobic bacteria”.
With molybdate, the “effective / use concentration against sulfate-reducers” value in test [6] is given as 1000-4000 ppm.
